According to PMC11434749, “In Vitro Interaction of Binuclear Copper Complexes with Liver Drug-Metabolizing Cytochromes P450” (Pharmaceuticals, 2024):

Columns and labels:
[1] = target: T1, CYP2E1 (Homo sapiens, UniProt P05181); assay: Inhibition of CYP2E1 activity (chlorzoxazone 6-hydroxylation) in human liver microsomes; assay type: in vitro ADME; conditions: HLM, chlorzoxazone 30 µmol·L^−1, preincubation 30 min at 37 °C, Mean ± S.D.
T1 construct: Pooled human liver microsomes were obtained from Biopredic (Rennes, France); tissue Biopredic (Rennes, France); host or cells: pooled human liver microsomes, seventeen donors
T1 sequence (P05181 whole entry): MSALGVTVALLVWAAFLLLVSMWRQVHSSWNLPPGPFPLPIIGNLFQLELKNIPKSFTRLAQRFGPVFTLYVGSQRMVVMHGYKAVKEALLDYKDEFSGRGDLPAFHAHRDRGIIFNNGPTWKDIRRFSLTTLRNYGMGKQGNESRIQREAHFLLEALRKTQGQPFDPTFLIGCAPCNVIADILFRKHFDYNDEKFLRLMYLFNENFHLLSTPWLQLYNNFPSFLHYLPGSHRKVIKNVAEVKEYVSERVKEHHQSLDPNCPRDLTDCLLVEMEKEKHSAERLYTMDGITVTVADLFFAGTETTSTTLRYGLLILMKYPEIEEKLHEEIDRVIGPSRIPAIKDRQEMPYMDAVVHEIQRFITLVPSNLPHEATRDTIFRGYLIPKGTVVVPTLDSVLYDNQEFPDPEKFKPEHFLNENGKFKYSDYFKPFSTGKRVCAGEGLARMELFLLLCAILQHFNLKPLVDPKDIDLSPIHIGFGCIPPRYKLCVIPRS
Protocol: (§1) The following enzyme assays were performed to determine the activities of specific CYP enzymes: CYP1A2, 7-ethoxyresorufin O-deethylation; CYP2A6, coumarin 7-hydroxylation; CYP2B6, 7-ethoxy-4-(trifluoromethyl) coumarin (EFC) O-deethylation; CYP2C8 paclitaxel 6α-hydroxylation; CYP2C9, diclofenac 4′-hydroxylation; CYP2C19, diazepam N-desmethylation; CYP2D6, bufuralol 1′-hydroxylation; CYP2E1, chlorzoxazone 6-hydroxylation; and CYP3A4/5, testosterone 6β-hydroxylation. […]
(§2) For the determination of metabolites formed from specific substrates, a Prominence LC-20A HPLC system (Shimadzu, Kyoto, Japan) with UV detection or fluorescence detection was used (see Table 2). […]
(§3) Initially, for each enzyme assay, a preliminary experiment was carried out to determine Km and Vmax to obtain the appropriate concentration of the specific substrates for the inhibition experiments (the substrate concentration was chosen in the range corresponding to the value of the Km for each particular reaction). Data were analyzed using the Sigma plot software, as mentioned above, with spectral studies. […] In all cases, the inhibition of individual CYP activities was evaluated by plotting the respective remaining activity against the inhibitor concentration.

[2] = test system: E. faecalis; parameters: method as in doi:10.1016/j.ica.2022.121273; conditions: Gram-positive; cited from earlier work
[3] = target: T2, CYP2A6 (Homo sapiens, UniProt P11509); assay: Inhibition of CYP2A6 activity (coumarin 7-hydroxylation) in human liver microsomes; assay type: in vitro ADME; conditions: HLM, coumarin 15 µmol·L^−1, preincubation 30 min at 37 °C, Mean ± S.D.
T2 construct: Pooled human liver microsomes were obtained from Biopredic (Rennes, France); tissue Biopredic (Rennes, France); host or cells: pooled human liver microsomes, seventeen donors
T2 sequence (P11509 1-494): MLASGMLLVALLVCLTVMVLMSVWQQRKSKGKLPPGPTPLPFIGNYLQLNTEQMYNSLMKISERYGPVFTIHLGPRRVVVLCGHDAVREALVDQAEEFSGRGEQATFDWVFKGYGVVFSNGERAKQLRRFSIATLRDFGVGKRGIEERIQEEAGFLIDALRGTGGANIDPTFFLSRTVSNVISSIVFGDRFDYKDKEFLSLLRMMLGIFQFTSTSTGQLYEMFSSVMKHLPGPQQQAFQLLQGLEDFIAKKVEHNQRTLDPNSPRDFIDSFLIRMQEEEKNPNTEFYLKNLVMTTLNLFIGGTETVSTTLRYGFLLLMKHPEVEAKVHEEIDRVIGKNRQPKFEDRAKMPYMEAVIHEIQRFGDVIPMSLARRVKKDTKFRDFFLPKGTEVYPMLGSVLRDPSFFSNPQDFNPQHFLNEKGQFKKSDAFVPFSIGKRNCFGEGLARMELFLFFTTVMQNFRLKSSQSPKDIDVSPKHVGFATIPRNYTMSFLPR
Protocol: as §1, §2, §3

[4] = target: T3, CYP1A2 (Homo sapiens, UniProt P05177); assay: Inhibition of CYP1A2 activity (7-ethoxyresorufin O-deethylation) in human liver microsomes; assay type: in vitro ADME; conditions: HLM, 7-ethoxyresorufin 1.3 µmol·L^−1, preincubation 30 min at 37 °C, Mean ± S.D.
T3 construct: Pooled human liver microsomes were obtained from Biopredic (Rennes, France); tissue Biopredic (Rennes, France); host or cells: pooled human liver microsomes, seventeen donors
T3 sequence (P05177 1-516): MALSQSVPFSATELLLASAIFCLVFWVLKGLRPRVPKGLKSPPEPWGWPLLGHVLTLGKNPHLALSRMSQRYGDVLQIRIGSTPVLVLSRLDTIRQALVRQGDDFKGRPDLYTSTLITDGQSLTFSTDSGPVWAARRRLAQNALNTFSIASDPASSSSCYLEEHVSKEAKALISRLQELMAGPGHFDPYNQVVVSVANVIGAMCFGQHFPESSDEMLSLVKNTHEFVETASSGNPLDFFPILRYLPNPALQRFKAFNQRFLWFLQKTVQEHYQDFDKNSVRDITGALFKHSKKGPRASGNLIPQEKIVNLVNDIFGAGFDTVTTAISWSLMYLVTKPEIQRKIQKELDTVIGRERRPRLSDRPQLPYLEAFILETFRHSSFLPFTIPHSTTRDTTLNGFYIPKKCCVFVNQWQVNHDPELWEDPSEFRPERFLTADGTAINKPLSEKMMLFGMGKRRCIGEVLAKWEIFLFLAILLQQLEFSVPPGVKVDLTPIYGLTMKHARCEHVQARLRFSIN
Protocol: as §1, §2, §3

[5] = target: T4, CYP2C9 (Homo sapiens, UniProt P11712); assay: Inhibition of CYP2C9 activity (diclofenac 4′-hydroxylation) in human liver microsomes; assay type: in vitro ADME; conditions: HLM, diclofenac 16 µmol·L^−1, preincubation 30 min at 37 °C, Mean ± S.D.
T4 construct: Pooled human liver microsomes were obtained from Biopredic (Rennes, France); tissue Biopredic (Rennes, France); host or cells: pooled human liver microsomes, seventeen donors
T4 sequence (P11712 whole entry): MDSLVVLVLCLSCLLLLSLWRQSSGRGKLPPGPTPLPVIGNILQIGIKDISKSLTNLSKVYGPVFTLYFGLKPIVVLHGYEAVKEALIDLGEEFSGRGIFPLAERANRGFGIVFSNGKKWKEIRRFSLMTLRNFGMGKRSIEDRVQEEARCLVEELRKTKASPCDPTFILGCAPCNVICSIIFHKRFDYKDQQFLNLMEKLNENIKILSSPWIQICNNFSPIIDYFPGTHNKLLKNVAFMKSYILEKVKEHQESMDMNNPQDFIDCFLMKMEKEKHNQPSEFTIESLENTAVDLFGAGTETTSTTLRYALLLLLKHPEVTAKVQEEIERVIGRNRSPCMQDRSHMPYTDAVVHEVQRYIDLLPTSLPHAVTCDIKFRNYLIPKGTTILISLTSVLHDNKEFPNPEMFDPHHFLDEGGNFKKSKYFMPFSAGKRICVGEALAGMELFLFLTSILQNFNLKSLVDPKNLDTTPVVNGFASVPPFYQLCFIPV
Protocol: as §1, §2, §3

[6] = target: T5, CYP2D6 (Homo sapiens, UniProt P10635); assay: Inhibition of CYP2D6 activity (bufuralol 1′-hydroxylation) in human liver microsomes; assay type: in vitro ADME; conditions: HLM, bufuralol 15 µmol·L^−1, preincubation 30 min at 37 °C, Mean ± S.D.
T5 construct: Pooled human liver microsomes were obtained from Biopredic (Rennes, France); tissue Biopredic (Rennes, France); host or cells: pooled human liver microsomes, seventeen donors
T5 sequence (P10635 whole entry): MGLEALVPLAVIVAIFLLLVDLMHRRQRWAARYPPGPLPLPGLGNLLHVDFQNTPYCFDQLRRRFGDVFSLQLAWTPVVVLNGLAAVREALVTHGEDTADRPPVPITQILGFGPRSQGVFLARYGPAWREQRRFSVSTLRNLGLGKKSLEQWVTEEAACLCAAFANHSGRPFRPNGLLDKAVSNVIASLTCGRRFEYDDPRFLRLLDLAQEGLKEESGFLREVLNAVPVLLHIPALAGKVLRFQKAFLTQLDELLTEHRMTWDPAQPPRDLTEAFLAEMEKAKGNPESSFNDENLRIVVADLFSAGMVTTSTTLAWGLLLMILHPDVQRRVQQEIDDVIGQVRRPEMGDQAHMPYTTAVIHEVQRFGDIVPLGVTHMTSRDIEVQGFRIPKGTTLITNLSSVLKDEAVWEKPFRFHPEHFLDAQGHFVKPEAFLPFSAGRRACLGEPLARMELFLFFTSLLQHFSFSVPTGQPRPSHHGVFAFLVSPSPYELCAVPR
Protocol: as §1, §2, §3

Row | Compound | IC50 [1] | MIC E. faecalis [2] | IC50 [3] | IC50 [4] | IC50 [5] | IC50 [6]
1 | CN(C)CCN(C)CCN(C)C.CN(C)CCN(C)CCN(C)C.O.O.O=C([O-])CCSSCCC(=O)[O-].[Cu+2].[Cu+2].[O-][Cl+3]([O-])([O-])[O-].[O-][Cl+3]([O-])([O-])[O-] [Complex No. 6, [Cu2(μ-dtdp)(pmdien)2(H2O)2](ClO4)2] | 6.59 ± 0.18 µM | 8.44 µg/mL | 25.13 ± 0.13 µM | 25.2 ± 0.29 µM | 12.26 ± 0.11 µM | 6.33 ± 0.22 µM
2 | CN(C)CCN(C)CCN(C)C.CN(C)CCN(C)CCN(C)C.O.O.O=C([O-])/C=C/C(=O)[O-].[Cu+2].[Cu+2].[O-][Cl+3]([O-])([O-])[O-].[O-][Cl+3]([O-])([O-])[O-] [Complex No. 5, [Cu2(μ-fu)(pmdien)2(H2O)2](ClO4)2] | 12.5 ± 0.18 µM | 4.22 µg/mL | 24.9 ± 0.25 µM | 24.97 ± 0.22 µM | 12.59 ± 0.06 µM | 12.4 ± 0.21 µM
